Assay results: patent publication US5229367A, “Antiinflammatory peptide derived from human lipocortin V” (Sclavo S.p.A., priority 1991, dated 1993)
Values after ≈ are worked out from the molar mass of the structure shown. Read-outs that look alike come from different tables or passages of the source. Peptide text beside a SMILES is read from it.

Experiments:
[1] = system: carrageenin induced oedema in rat paw; assay: Inhibition of carrageenin induced oedema in rat paw; assay type: in vivo; settings: for Oedema 3 hours Inhibition %: 3 hours after carrageenin; for Oedema 4 hours Inhibition %: 4 hours after carrageenin
Experimental: The carrageenin induced oedema in the rat paw was generated as disclosed by Parente et al. (Eur. J. Pharmacol., 99: 233-239, (1984). Practically 0.1 ml physiological solution comprising 1% (w/v) lambda carrageenin (Sigma) were injected subcutaneously into the right back paw of male Wistar rats weighing 200 g pretreated as follows: 5 rats (control) were locally inoculated with 100 μl sterile physiological solution; 5 rats were locally injected with 100 μl physiological solution comprising […] (respectively corresponding to a dose of 2 and 0.5 mg/Kg) synthetic peptide 204-212. The oedema was measured with a water plethysmometer 3 and 4 hours after the carrageenin injection. The results in Table 5 show an inhibition of the oedema due to the peptide 204-212 and moreover that the extent of the inhibition is dose-dependent.

[2] = system: PLA2 induced oedema in rat paw; assay: Inhibition of PLA2 induced oedema in rat paw; assay type: in vivo; settings: 2 mg/Kg (400 μg) co-injected with 5 μg PLA2 into paw, mean of five
Experimental: The oedema induced by PLA2 in the rat paw was generated according to the modified technique of Marshall et al. (J. Cell Biochem. suppl. 12 E: S325, 1985). Practically, the enzyme phospholipase A2 (Naja Mocambique), with a specific activity of about 400 units/mg protein, was dissolved into a physiological solution comprising calcium chloride 1 mM to a final concentration of 100 μg/ml. Thereafter samples (0.5 ml) of said solution were diluted 1:1 (v/v) either with a physiological solution as such, or with a physiological solution comprising the synthetic peptide 204-212 at a concentration of 8 mg/ml. The thus obtained solutions were incubated at 37° C. for 15 min. At the end of this incubation period, 0.1 ml of the solutions either comprising 5 μg of PLA2 only, or additionally 400 μg of the synthetic peptide, were injected into the right back paw of male Wistar rats of 200 g weight (thus the synthetic peptide 204- 212 was given at a 2 mg/Kg dose). The oedema in the paw was measured by means of a water plesthysomometer 30 and 60 min after the injection. The results reported in Table 4 confirm the in vivo PLA2 inhibiting effect of the peptide 204-212.

[3] = system: rat peritoneal leukocytes; assay: Inhibition of zymosan-stimulated prostaglandin E2 release in rat peritoneal leukocytes (radioimmunoassay); assay type: cell-based; settings: peptide 100 μg/ml
Experimental: Rat peritoneal leukocytes were collected and purified as described by Parente and Flower (supra), then suspended in Krebs solution oxygenated with Carbogen at a final concentration of 1.10^6 cells/ml. Samples (1 ml) of said suspension were incubated in a thermostatic bath at 37° C. for 30 min in the presence (100 μg/ml) and in the absence (control) of the synthetic peptide 204-212. The incubation was maintained for a further 60 min at 37° C. after addition to each culture of 200 μg/ml Zymosan (activated by opsonization, i.e. incubated with mouse serum for 30 min at 37° C.). At the end of this time the cells were separated from the suspension by centrifugation at 10,000 rpm for 5 min using an Eppendorf centrifuge model 5414. The supernatants thus recovered were analysed by radioimmunoassay to monitor the prostaglandin E2 (PGE2) levels.

[4] = target: T1, phospholipase A2 (pig pancreas phospholipase preparation) (Sus scrofa, UniProt P00592); assay: Inhibition of PLA2 induced contractions in rat stomach strip; settings: peptide 20 μg/ml, 30 min; PLA2 4.4 μg/ml; mean of four samples
T1 construct: pig pancreas phospholipase preparation from Sigma; purchased Sigma; host or cells: pig pancreas (tissue-derived preparation)
Experimental: The rat stomach bottom strip was prepared as originally described by Vane (Br. J. Pharmacol., 12: 344-349, 1957) and suspended in a small bath for resected organs, thermostated at 37° in Krebs solution. After two hours stabilisation in said bath, the stomach reacts to phospholipase A2 stimulation (pig pancreas phospholipase preparation from Sigma) by contracting. These contractions are recorded by means of an isotonic transductor on recorder (Firm Basile). The contracting effect of the PLA2 is concentration-dependent and a concentration of 4.4 μg/ml was used in the experiments with the peptide 204-212. The experiments were carried out as follows:
a) estimation of the stomach contracting effect by the PLA2 at the final concentration of 4.4 μg/ml (control value)
b) after thoroughly washing the strip, peptide (I) was added at the concentration of 20 μg/ml and the effect of the PLA2 was estimated again after 30 min (sample).

[5] = system: human fibroblasts; settings: for Inhibition %: PGE2 release, bradykinin 1 μM
Experimental: Thereafter 0.2 ml of said suspension were placed into each well of a 96 flat bottomed well Cluster dish (firm Costar) and incubated at 37° C. for 72 hours. At the end of said period the cells were washed three times with 0.2 ml medium without serum and then incubated for 60 min at 37° C. as follows:
one part in 0.2 ml DMEM medium without bovine foetal serum (control);
Bradykinin (Sigma) was added thereafter to the final concentration of 1 μM to all the samples, and the incubation was maintained for a further 30 min. Finally the determination of PGE2 in the cell-free supernatants was carried out by making use of a radioimmunoassay.

T1 sequence (P00592 23-146): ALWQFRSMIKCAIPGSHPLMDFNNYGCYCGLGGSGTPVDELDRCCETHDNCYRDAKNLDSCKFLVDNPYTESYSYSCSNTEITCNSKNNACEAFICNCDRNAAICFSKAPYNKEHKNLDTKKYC

## CC(C)C[C@H](NC(=O)[C@H](Cc1c[nH]cn1)NC(=O)[C@@H](N)CO)C(=O)N[C@@H](CCCNC(=N)N)C(=O)N[C@@H](CCCCN)C(=O)N[C@H](C(=O)N[C@@H](Cc1ccccc1)C(=O)N[C@@H](CC(=O)O)C(=O)N[C@@H](CCCCN)C(=O)O)C(C)C [Peptide 204-212, H-Ser-His-Leu-Arg-Lys-Val-Phe-Asp-Lys-X] (H-SHLRKVFDK-OH)
[1]; 0.5 mg/Kg local injection
  Oedema 3 hours Inhibition %: 22.7 ± 8.3%
  Oedema 4 hours Inhibition %: 13.7 ± 5.1%
[1]; 2.0 mg/Kg local injection
  Oedema 3 hours Inhibition %: 37.0 ± 3.3%
  Oedema 4 hours Inhibition %: 37.5 ± 10.1%
[2]; 30 min after injection
  Oedema 30 min: 25.4 ± 7.7
[2]; 60 min after injection
  Oedema 60 min: 25.4 ± 7.8
[3]; PGE2 release
  Inhibition %: 49.8%
[3]; 200 μg/ml opsonized Zymosan, supernatant PGE2 level, mean of three samples plus standard error, control 253.7 + 22.8
  PGE2: 129.0 + 16.9
[4]
  inhibition at 20 µg/mL: 60.5%
[5]
  ED 50: 1.13 µg/mL (≈ 1 µM)
[5]; 1 ng/ml
  Inhibition %: 0%
[5]; 10 ng/ml
  Inhibition %: 16 ± 2%
[5]; 100 ng/ml
  Inhibition %: 41 ± 7%
[5]; 1 μg/ml
  Inhibition %: 43 ± 4%
[5]; 10 μg/ml
  Inhibition %: 63 ± 7%
[5]; 100 μg/ml
  Inhibition %: 94 ± 6%
